According to patent US20160096016A1, “METHODS AND SYSTEMS FOR REDUCING INFLAMMATION BY NEUROMODULATION AND ADMINISTRATION OF AN ANTI-INFLAMMATORY DRUG” (priority 2008, published 2016):
Entries after “also recorded” stand apart in the source; their conditions may differ.

How the values were obtained:
[1] = tested on: spleen cells; assay: Viability of LPS-stimulated spleen cells; conditions: concentrations of Paraoxon used in FIG. 7A; FIG. 7B
Protocol: (§1) In this example, differing concentrations of Paraoxon were included in various individual wells (having 5×10^6 cell/well) with a total volume of 250 microliters/well, and stimulated for 4 hours with LPS (500 ng/mL).

[2] = tested on: LPS-stimulated spleen cells; assay: TNF production by LPS-stimulated spleen cells; type: cell-based, BALB/c mice; conditions: 5×10^6 cell/well, LPS 500 ng/mL, 4 hours; increasing concentrations; FIG. 7A
Protocol: as §1

[3] = tested on: TNF production; conditions: endotoxemia; nicotine 2 mg/kg i.p. 30 minutes prior to endotoxin
Protocol: Adult male BALB/c mice 8 to 12 weeks-old (20-25 g; Taconic) and adult male Sprague Dawley rats 8 to 12 weeks-old (250-300 g, Charles River Laboratories) were housed at 25° C. on a 12-hour light/dark cycle, and let acclimatize for one week before experiments were conducted. Water and regular rodent chow were available ad libitum. Experiments were performed under protocols approved by the Institutional Animal Care and Use Committee of the Feinstein Institute for Medical Research, North Shore-LIJ Health System.
Endotoxin (LPS from E. coli, 0111:B4, Sigma-Aldrich) was injected to animals (10 mg/kg, i.p. corresponding to a LD75 dose). Blood and spleens were harvested 10, 30, 60 or 120 minutes after LPS administration. We used ELISA to determine TNF concentration in serum (R&D Systems). Spleens were either snap frozen for further immunofluorescence analysis or disrupted in PBS plus protease inhibitor cocktail (Complete mini, Roche) with a tissue homogenizer (Polytron 3100, Kinematica). TNF content in spleen tissue was determined by ELISA and normalized to protein concentration (Protein Assay, BioRad). In some experiments, PBS or nicotine (Sigma-Aldrich) was injected 30 minutes (2 mg/kg, i.p.) prior to endotoxin administration. Animals were then euthanized 60 minutes later and spleens were harvested for TNF immunofluorescence or TNF quantification in tissue homogenates.

SMILES | toxicity / cell viability [1] | TNF production by LPS-stimulated spleen cells [2] | TNF production by TNF-producing splenic macrophages [3]
CCOP(=O)(OCC)Oc1ccc([N+](=O)[O-])cc1 [Paraoxon] | no significant toxicity; also recorded: without affecting cell viability; also recorded: no significant loss of viability | dose-dependent inhibition of TNF; also recorded: dose-dependently attenuated TNF levels; also recorded: the greater the inhibition of TNF | 
CN1CCCC1c1cccnc1 (stereo not drawn) [nicotine] |  |  | significantly attenuates TNF production
